# Reference: patent US20040209954A1, “Compositions and methods for treating body malodor and fungal overgrowth in mammals” (priority 2003, published 2004)
# Columns and labels:
# Assay type in all cases: cell-based
# A. Niger = experiment: Minimum inhibitory concentration (MIC) versus A. niger
# Description: In the instance of anti-fungal activity, detailed analysis has been carried out with a prototypical pathogen, Trichophytone mentagrophytes. The testing was conducted and illustrates the activity of the ACQA agents that are the subject of this invention. A Time Kill (D-Value) study (ASTM protocol #1891-97 Standard Guide For Determination Of A Survival Curve For Antimicrobial Agents Against Selected Microorganisms And Calculation Of A D-value And Concentration Coefficient) was carried out to screen for the antifungal activity of glycopyrrolate (3%). Testing was done to determine the speed at which the product kills a representative test organism, which was Trichophyton mentagrophytes, a representative dermatophyte-causing species. Determination of the minimum inhibitory concentration (MIC) versus A. Niger, a prototypical fungi was also initiated. The vehicle was 65% water/35% ethanol.
# (§1) Additional scientific investigation was completed to verify the drug class aspects of this invention. […] Specifically, Mepenzolate bromide and Ipratropium bromide were evaluated utilizing standardized microbiological test methods for minimum inhibitory concentration (MIC) versus A. niger and C. albicans. MICs in the range of 1% were observable, confirming the antifungal activity of this class of compound. Insofar as ipratropium is used for intranasal purposes, it is apparent that the discovered property is not predicted by any known attribute of this class of drugs.
# C. albicans = experiment: Minimum inhibitory concentration (MIC) versus C. albicans
# Description: as §1
# [1] = tested on: Trichophyton mentagrophytes; experiment: Time Kill (D-Value) study, antifungal; settings: glycopyrrolate 3%, vehicle 65% water/35% ethanol
# Description: (§2) In Vitro and in vivo tests can be used to show the efficacy of antimicrobial products. With appropriate controls and methods In Vitro tests are applicable to all products. The time-to-kill test is used to determine the killing kinetics and activity spectrum of antimicrobials. In this example, the test was, as is usual, performed in suspension. The principle is to place the product or agent in contact with an inoculum for a specified period of time. At the end of the contact time, the mixture is inactivated by dilution into neutralizing broth. Serial dilutions in appropriate broth are performed and the number of surviving bacterial observed on solid culture media. It is general practice to test agents so that the final concentration is representative of the use concentration of the product.
# In the instance of anti-fungal activity, detailed analysis has been carried out with a prototypical pathogen, Trichophytone mentagrophytes. The testing was conducted and illustrates the activity of the ACQA agents that are the subject of this invention. A Time Kill (D-Value) study (ASTM protocol #1891-97 Standard Guide For Determination Of A Survival Curve For Antimicrobial Agents Against Selected Microorganisms And Calculation Of A D-value And Concentration Coefficient) was carried out to screen for the antifungal activity of glycopyrrolate (3%). […]
# [2] = tested on: Corynebacterium vitaeruminis; experiment: Time Kill (D-Value) study, antibacterial; settings: glycopyrrolate 3%, vehicle 65% water/35% ethanol
# Description: as §2
# (§3) Similarly, In Vitro and In Vivo tests can be used to show the efficacy of antimicrobial products against bacterial species. Such a Time Kill (D-Value) study was conducted and illustrates the antibacterial activity of the ACQA agents that are the subject of this invention. In this case, the study was carried out to screen for the antibacterial activity of glycopyrrolate (3%) and triclosan (0.3%). Testing was done to determine the speed and MIC at which the product kills representative test organisms, which were Micrococcus luteous (syn ATTC 9341 changed to Kocuria rhizophila), Staphylococcos epidermidis and Corynebacterium vitaeruminis, representative odor-causing species. Once again, the vehicle was 65% water/35% ethanol.
# [3] = tested on: Micrococcus luteous (syn ATTC 9341 changed to Kocuria rhizophila); experiment: Time Kill (D-Value) study, antibacterial; settings: glycopyrrolate 3%, vehicle 65% water/35% ethanol
# Description: as §2, §3
# [4] = tested on: Staphylococcos epidermidis; experiment: Time Kill (D-Value) study, antibacterial; settings: glycopyrrolate 3%, vehicle 65% water/35% ethanol
# Description: as §2, §3
SMILES,MIC versus A. niger (A. Niger),MIC versus C. albicans (C. albicans),time to antifungal effect over and above vehicle in D Value study [1],time to kill in D Value study [2],time to kill in D Value study [3],time to kill in D Value study [4]
CC(C)[N+]1(C)[C@@H]2CC[C@H]1CC(OC(=O)C(CO)c1ccccc1)C2.[Br-] (stereo partly drawn) [Ipratropium bromide],~1%,~1%,,,,
C[N+]1(C)CCCC(OC(=O)C(O)(c2ccccc2)c2ccccc2)C1 (stereo not drawn) [Mepenzolate bromide],~1%,~1%,,,,
C[N+]1(C)CCC(OC(=O)C(O)(c2ccccc2)C2CCCC2)C1 (stereo not drawn) [glycopyrrolate],> 0.1%,,24 min,4 min,4 min,4 min
